According to patent US8003686B2, “Aryl derivatives of curcumin, demethoxycurcumin, bisdemethoxycurcumin or curcuminisoxazolide and their use as animal feed additives” (DSM IP Assets B.V., priority 2005, dated 2011):

What was measured:
Assay in all cases: Inhibition of bacterial growth in broth culture, CFU counting
Assay type in all cases: cell-based
[1] = tested on: Salmonella enteritidis pF1338 (E); conditions: 1000 μM; Salmonella enteritidis pF1338 from pig gastrointestinal content; counting after 24 hours at 37° C.
Excerpt: (§1) The following bacteria were isolated from pig gastrointestinal content: Escherichia coli 0.94 (A), Escherichia coli 0.96 (B), Klebsiella pneumoniae (C), Salmonella typhimurium pF3127 (D), Salmonella enteritidis pF1338 (E), Enterococcus faecalis (F), Enterococcus faecium (G), Staphylococcus hyicus (H), Lactobacillus salivarius (I) and Lactobacillus acidophilus 3 (J). Their identities were confirmed by microscopic examination after gram staining and biochemical testing using the appropriate API system. Test strains were maintained in tryptic soy broth (named BTS; […] Overnight cultures of the test organisms were diluted in tryptic soy broth to the final concentration used for inoculation of the assay. Pure bacteria were counted on tryptic soy agar (Merck, Darmstadt, Germany) after aerobical incubation at 37° C. during 24 hours. […] Sterilized nutrient broth was prepared using tryptic soy broth (Merck, Darmstadt, Germany), and 4.4 ml of it was added to each test tube. 500 μl of each of the dilutions and 100 μl of bacteria, diluted to the appropriate inoculum size (2×10^4 to 10^5 CFU/ml), was added to the test tubes. […] Becton […], France). The final concentration of each derivative was […]. The tubes and the microtiter plates were incubated during 24 to 48 hours (depending of the bacteria tested) at 37° C. and under agitation. Inhibition of growth was determined by bacterial counting after 24 hours of incubation. […] All bacterial counts were realized with two replicate plates. In general, each assay was performed in two replicates. The reduction of bacterial growth was determined by subtracting the number of the bacteria of the test culture after 24 hours from the number of bacteria of the control culture. The colonies developed after incubation were counted, and the inhibitory effect was calculated according to Rico-Munoz and Davidson, J.

[2] = tested on: Escherichia coli 0.96 (B); conditions: 1000 μM; Escherichia coli 0.96 from pig gastrointestinal content; counting after 24 hours at 37° C.
Excerpt: as §1

[3] = tested on: Escherichia coli 0.94 (A); conditions: 1000 μM; Escherichia coli 0.94 from pig gastrointestinal content; counting after 24 hours at 37° C.
Excerpt: as §1

[4] = tested on: Staphylococcus hyicus (H); conditions: 1000 μM; Staphylococcus hyicus from pig gastrointestinal content; counting after 24 hours at 37° C.
Excerpt: as §1

[5] = tested on: Salmonella typhimurium pF3127 (D); conditions: 1000 μM; Salmonella typhimurium pF3127 from pig gastrointestinal content; counting after 24 hours at 37° C.
Excerpt: as §1

[6] = tested on: Klebsiella pneumoniae (C); conditions: 1000 μM; Klebsiella pneumoniae from pig gastrointestinal content; counting after 24 hours at 37° C.
Excerpt: as §1

[7] = tested on: Enterococcus faecium (G); conditions: 1000 μM; Enterococcus faecium from pig gastrointestinal content; counting after 24 hours at 37° C.
Excerpt: as §1

[8] = tested on: Lactobacillus salivarius (I); conditions: 1000 μM; Lactobacillus salivarius from pig gastrointestinal content; counting after 24 hours at 37° C.
Excerpt: as §1

[9] = tested on: Enterococcus faecalis (F); conditions: 1000 μM; Enterococcus faecalis from pig gastrointestinal content; counting after 24 hours at 37° C.
Excerpt: as §1

Substance	Percentage of inhibition of growth of bacterial strain E [1]	Percentage of inhibition of growth of bacterial strain B [2]	Percentage of inhibition of growth of bacterial strain A [3]	Percentage of inhibition of growth of bacterial strain H [4]	Percentage of inhibition of growth of bacterial strain D [5]	Percentage of inhibition of growth of bacterial strain C [6]	Percentage of inhibition of growth of bacterial strain G [7]	Percentage of inhibition of growth of bacterial strain I [8]	Percentage of inhibition of growth of bacterial strain F [9]
Curcumin diphosphate ammonium salt [derivative 2]	30 ± 34%	47 ± 28%	35 ± 41%	2 ± 7%	40 ± 72%	25 ± 5%	13 ± 6%	64 ± 50%	
curcumindipalmitate [Example 1]	14 ± 13%	59 ± 17%	62 ± 0.3%	−4 ± 42%	33 ± 29%	12 ± 4%		2%	38 ± 34%
